In patent US20100179058A1, “Azolylmethyloxiranes, Their Use for Controlling Phytopathogenic Fungi, and Compositions Comprising Them” (BASF SE, priority 2006, published 2010):

Key:
Alternaria solani [1] = assay: Activity against early blight of tomato caused by Alternaria solani (Alteso P1), greenhouse; format: in vivo; details: tomato plants, comparative experiment, untreated 90
Description: The active compounds were prepared separately or jointly as a stock solution comprising 25 mg of active compound which was made up to 10 ml using a mixture of acetone and/or DMSO and the emulsifier Wettol EM 31 (wetting agent having emulsifying and dispersing action based on ethoxylated alkylphenol) in a volume ratio of solvent/emulsifier of 99:1. The mixture was then made up to 100 ml with water. This stock solution was diluted with the solvent/emulsifier/water mixture described to give the concentration of active compound stated below. Leaves of potted tomato plants were sprayed to runoff point with an aqueous suspension having the active compound concentration stated below. The next day, the leaves were inoculated with an aqueous spore suspension of Alternaria solani in a 2% strength biomalt solution. The plants were then placed in a water vapor-saturated chamber at temperatures between 20 and 22° C. After 5 days, the disease on the untreated but infected control plants had developed to such an extent that the infection could be determined visually in %. […]

Botrytis cinerea = assay: Activity against gray mold on bell pepper leaves caused by Botrytis cinerea, 1 day protective application (Botrci P1), greenhouse; format: in vivo; details: bell pepper seedlings, comparative experiment, untreated 100
Description: The active compounds were prepared separately or jointly as a stock solution comprising 25 mg of active compound which was made up to 10 ml using a mixture of acetone and/or DMSO and the emulsifier Wettol EM 31 (wetting agent having emulsifying and dispersing action based on ethoxylated alkylphenol) in a volume ratio of solvent/emulsifier of 99:1. The mixture was then made up to 100 ml with water. This stock solution was diluted with the solvent/emulsifier/water mixture described to give the concentration of active compound stated below. Bell pepper seedlings were, after 2-3 leaves were well developed, sprayed to runoff point with an aqueous suspension having the active compound concentration stated below. The next day, the treated plants were inoculated with a spore suspension of Botrytis cinerea in a 2% strength biomalt solution. The test plants were then placed in a dark climatized chamber at 22 to 24° C., and high atmospheric humidity. After 5 days, the extent of the fungal infection on the leaves could be determined visually in %.

Alternaria solani [2] = assay: Activity against Alternaria solani early blight pathogen in the microtiter test (Alteso); format: cell-based; details: 125 ppm active compound, microtiter plate, 405 nm, day 7 after inoculation
Description: (§1) The active compounds were formulated separately as a stock solution having a concentration of […] in DMSO. The stock solution is pipetted onto a microtiter plate (MTP) and diluted to the stated active compound concentration using a malt-based aqueous nutrient medium for fungi. An aqueous spore suspension of Alternaria solani was then added. The plates were placed in a water vapor-saturated chamber at temperatures of 18° C. Using an absorbtion photometer, the MTPs were measured at 405 nm on day 7 after the inoculation. The measured parameters were compared to the growth of the active compound-free control variant and the fungus- and active compound-free blank value to determine the relative growth in % of the pathogens in the individual active compounds.

Septoria tritici = assay: Activity against the Septoria leaf blotch pathogen Septoria tritici in the microtiter test (Septtr); format: cell-based; details: 125 ppm active compound, microtiter plate, 405 nm, day 7 after inoculation
Description: as §1, with “Septoria tritici” for “Alternaria solani”

Compound | Infection in % at 63 ppm for Alteso P1 (Alternaria solani [1]) [%] | Infection in % at 63 ppm for Botrci P1 (Botrytis cinerea) [%] | growth (relative growth in % of the pathogens) (Alternaria solani [2]) [%] | growth (relative growth in % of the pathogens) (Septoria tritici) [%]
Fc1ccc(C2(Cn3cncn3)OC2c2ccccc2Cl)c(F)c1 (racemic) [8.12] | 10 | 30 | – | –
Cc1cccc(C2OC2(Cn2cncn2)c2ccc(F)cc2F)c1 (stereo not drawn) [8.8] | – | – | 0 | 0
Fc1ccccc1C1(Cn2cncn2)OC1c1ccccc1Cl (stereo not drawn) [Comp. No. 6 of EP-A 0196038, reference compound] | 90 | 100 | – | –
